Measured values as given in patent US20050256073A1, “Immunostimulatory viral RNA oligonucleotides” (Coley Pharmaceutical Group, Inc., priority 2004, published 2005).
Where “and” joins values, the source holds several entries; their conditions need not be identical. Equal entries are not always repeated. Where two headings read alike, the source gives them in different places.

Key:
Assay type in all cases: cell-based
human PBMC [1] = conditions: for EC50: read-out: TNF production EC50
human PBMC [2] = conditions: for EC50: read-out: IFN-γ production EC50
human PBMC [3] = conditions: for EC50: read-out: IFN-α production EC50
human CD14+ cells = assay: CD80 expression on human CD14+ cells (FACS)
[4] = tested on: human CD19+ cells (B cells); assay: CD80 expression on human CD19+ cells (FACS)
human PBMC [5] = tested on: human PBMC
human TLR8 = molecular target: T1, human TLR8 (Homo sapiens, UniProt Q9NR97); assay: NF-κB-luciferase readout in HEK293 cells stably transfected with human TLR8
T1 construct: expressed in transfected cells; host or cells: HEK293 cells, stably transfected, with NF-κB-luciferase reporter construct
T1 sequence (Q9NR97 27-1041): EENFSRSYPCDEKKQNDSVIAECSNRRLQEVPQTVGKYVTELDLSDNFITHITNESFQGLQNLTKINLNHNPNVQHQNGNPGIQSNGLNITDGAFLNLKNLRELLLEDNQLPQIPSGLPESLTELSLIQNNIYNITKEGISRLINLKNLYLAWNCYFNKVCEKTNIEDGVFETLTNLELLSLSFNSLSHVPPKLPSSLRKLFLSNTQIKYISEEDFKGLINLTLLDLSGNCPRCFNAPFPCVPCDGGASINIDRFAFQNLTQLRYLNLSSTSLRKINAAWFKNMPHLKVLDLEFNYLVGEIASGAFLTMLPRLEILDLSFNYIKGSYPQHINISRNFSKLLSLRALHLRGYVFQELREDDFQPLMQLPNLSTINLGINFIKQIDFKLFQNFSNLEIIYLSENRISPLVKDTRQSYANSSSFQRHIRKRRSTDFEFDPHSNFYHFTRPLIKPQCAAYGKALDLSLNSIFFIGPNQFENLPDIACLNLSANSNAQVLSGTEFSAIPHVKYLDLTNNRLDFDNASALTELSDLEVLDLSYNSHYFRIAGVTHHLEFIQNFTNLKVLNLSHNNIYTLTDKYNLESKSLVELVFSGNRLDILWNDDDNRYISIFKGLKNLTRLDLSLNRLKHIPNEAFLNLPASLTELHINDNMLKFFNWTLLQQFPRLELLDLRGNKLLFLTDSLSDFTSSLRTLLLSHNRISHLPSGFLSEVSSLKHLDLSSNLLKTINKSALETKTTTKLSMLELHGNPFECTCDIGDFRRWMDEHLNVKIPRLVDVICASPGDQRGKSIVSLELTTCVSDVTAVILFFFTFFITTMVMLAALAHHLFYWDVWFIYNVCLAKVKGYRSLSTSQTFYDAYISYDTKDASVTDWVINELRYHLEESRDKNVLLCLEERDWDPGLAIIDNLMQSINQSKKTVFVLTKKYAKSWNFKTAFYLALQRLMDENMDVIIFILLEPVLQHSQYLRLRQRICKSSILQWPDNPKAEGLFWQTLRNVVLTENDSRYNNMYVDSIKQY
Protocol: (§1) Emitted light varied in direct proportion to NF-κB activation.
(§2) The effect of immunostimulatory oligonucleotide was assessed by titrating the amount or concentration of oligonucleotide concentration in a given experiment. The effect of immunostimulatory oligonucleotide concentration was expressed in terms of EC50 (concentration at which immunostimulatory oligonucleotide was 50 percent effective compared to maximum effect). The potency of a given immunostimulatory oligonucleotide was expressed as maximum stimulation index (SI max; the maximum fold increase in signal over that of untreated control) or maximum activity.
(§3) Stimulation and measurement of signal transduction in HEK293 cells stably transfected with either human TLR8 or human TLR9 and an NF-κB-luciferase reporter construct was performed essentially as described in Example 1. […] Results are expressed in terms of EC50 in μM and stimulation index (SI)=fold induction of NF-κB-luciferase activity in ligand-pulsed cells.

human TLR9 = molecular target: T2, human TLR9 (Homo sapiens, UniProt Q9NR96); assay: NF-κB-luciferase readout in HEK293 cells stably transfected with human TLR9
T2 construct: expressed in transfected cells; host or cells: HEK293 cells, stably transfected, with NF-κB-luciferase reporter construct
T2 sequence (Q9NR96 26-1032): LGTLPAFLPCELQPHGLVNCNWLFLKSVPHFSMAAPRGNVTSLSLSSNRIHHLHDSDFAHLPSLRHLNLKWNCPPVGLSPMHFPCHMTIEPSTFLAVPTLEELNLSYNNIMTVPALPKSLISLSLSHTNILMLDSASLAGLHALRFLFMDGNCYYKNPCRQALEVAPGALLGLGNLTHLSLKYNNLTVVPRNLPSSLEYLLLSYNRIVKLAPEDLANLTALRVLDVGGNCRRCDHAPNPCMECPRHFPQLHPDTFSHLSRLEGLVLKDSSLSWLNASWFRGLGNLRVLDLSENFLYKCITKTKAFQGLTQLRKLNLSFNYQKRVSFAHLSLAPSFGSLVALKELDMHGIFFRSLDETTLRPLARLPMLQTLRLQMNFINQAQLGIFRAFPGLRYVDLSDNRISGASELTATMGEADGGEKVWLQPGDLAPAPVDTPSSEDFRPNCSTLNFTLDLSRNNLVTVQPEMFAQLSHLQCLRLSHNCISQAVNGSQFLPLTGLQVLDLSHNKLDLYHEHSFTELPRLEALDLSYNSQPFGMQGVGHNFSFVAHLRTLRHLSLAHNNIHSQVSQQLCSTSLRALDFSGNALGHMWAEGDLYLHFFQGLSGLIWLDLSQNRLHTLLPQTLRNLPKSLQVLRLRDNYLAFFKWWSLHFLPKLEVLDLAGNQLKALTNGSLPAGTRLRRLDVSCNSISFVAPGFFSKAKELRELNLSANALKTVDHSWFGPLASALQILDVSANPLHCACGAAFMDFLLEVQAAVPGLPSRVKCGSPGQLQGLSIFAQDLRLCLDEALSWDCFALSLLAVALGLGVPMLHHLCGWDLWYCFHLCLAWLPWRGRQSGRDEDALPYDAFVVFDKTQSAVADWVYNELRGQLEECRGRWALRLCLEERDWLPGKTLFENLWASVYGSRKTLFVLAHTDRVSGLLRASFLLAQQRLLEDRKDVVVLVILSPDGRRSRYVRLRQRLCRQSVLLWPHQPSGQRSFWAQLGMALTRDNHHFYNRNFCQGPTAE
Protocol: as §1, §2, §3

Substance | TNF production max activity (human PBMC [1]) | EC50 (human PBMC [1]) | IFN-γ production max activity (human PBMC [2]) | IFN-α production max activity (human PBMC [3]) | EC50 (human PBMC [3]) | also measured
UUGAUCUGGUUGUUAAGCGU [ORN 6] | 8750 pg/mL and 10000 pg/mL and 7000 pg/mL and 8000 pg/mL | 462 nM and 409 nM and 604 nM and 498 nM and 493 nM | 60000 pg/mL and 30000 pg/mL and 45000 pg/mL | – | – | EC50 (human PBMC [2]): 635 nM and 586 nM and 611 nM
AGCGAAAGCAGGUCAAUUAU [ORN 5, reference compound] | 0 pg/mL | – | 0 pg/mL | 0 pg/mL | – | –
UGUUUUUUCUCUUGUUUGGU [ORN 3] | – | 419 nM and 421 nM and 470 nM and 337 nM and 412 nM | 60000 pg/mL and 70000 pg/mL and 65000 pg/mL | – | – | EC50 (human PBMC [2]): 528 nM and 606 nM and 567 nM; induction of co-stimulatory molecule CD80 on CD14+ cells (human CD14+ cells): induce; induction of co-stimulatory molecule CD80 on CD19+ cells (B cells) [4]: induce
AUAAUUGACCUGCUUUCGCU [ORN 4] | 5750 pg/mL and 8000 pg/mL and 5000 pg/mL | 412 nM and 400 nM and 559 nM and 512 nM and 471 nM | – | – | – | EC50 (human PBMC [2]): 637 nM and 490 nM and 564 nM; profile of immunostimulation (cytokines induced) (human PBMC [5]): very broad, including induction of TNF-α, IL-6, IL-12 p40, IFN-α, and IFN-γ; induction of co-stimulatory molecule CD80 on CD14+ cells (human CD14+ cells): induce; induction of co-stimulatory molecule CD80 on CD19+ cells (B cells) [4]: induce
GGGGAUGAUGTUGTGGGGGGG [ORN 20] | 0 pg/mL | – | – | 0 pg/mL | – | –
TUGTUGTTTTGTUGTTTTGTUGTT [ORN 16] | 56667 pg/mL | 234 nM | – | 2267 pg/mL | 1100 nM | –
dNdNdNdNdNdNdNUGdNdNdNdNdNdNdNdNdN [ORN 34] | 0 pg/mL | – | – | 0 pg/mL | – | –
TCGTCGTTTTCGGCGCGCGCCG [CpG ODN 2395, reference compound] | – | – | – | – | – | induction of co-stimulatory molecule CD80 on CD19+ cells (B cells) [4]: induce
TUGTUGTTTTUGGUGGUUGUUG [ORN 18] | 61667 pg/mL | 200 nM | – | 2617 pg/mL | 79.5 nM | –
GCCACCGAGCCGAUUUUACC [ORN 23] | 25500 pg/mL | 228 nM | – | 2333 pg/mL | 41 nM | –
dTdCdGdTdCdGdTdTdT 2′-5′ (GUUGUGU) dAdAdT [ORN 13] | 0 pg/mL | – | 0 pg/mL | – | 15 nM and 25 nM | TLR8 stimulation (in words) (human TLR8): lost; TLR9 stimulation (in words) (human TLR9): maintained; EC50 (human TLR9; Table 11, HEK293, NF-κB-luciferase): 110 nM
GCCACCGAGCCGAAGGCAAC [ORN 21, reference compound] | 0 pg/mL | – | – | 0 pg/mL | – | immunostimulatory activity (in words) (human PBMC [5]): no immunostimulatory activity
dNdNdNdNdNdNUUGUGdNdNdNdNdNdNdN [ORN 31] | 18000 pg/mL | 4890 nM | – | 766.7 pg/mL | 3870 nM | –
GGGGAUGAUGUUGUGGGGGGG [ORN 19] | 37667 pg/mL | 415 nM | – | 2867 pg/mL | 129 nM | –
dNdNdNdNdNdNUUGdNdNdNdNdNdNdNdNdN [ORN 33] | 0 pg/mL | – | – | 0 pg/mL | – | –
UUGUUGUUUUUGGUGGUUGUUG [ORN 17] | 70000 pg/mL | 57.5 nM | – | 3000 pg/mL | 15.2 nM | –
UUGUUGUUUUGUUGUUUUGUUGUU [ORN 15] | 60000 pg/mL | 40 nM | – | 2500 pg/mL | 5 nM | –
UCGUCGUUUUGUCGUUUUGUCGUU [ORN 14] | 53833 pg/mL | 78 nM | – | 2783 pg/mL | 37.3 nM | –
CUUACCCAACUUUGUUUGGU [ORN 2] | 9500 pg/mL and 8000 pg/mL and 13000 pg/mL and 10000 pg/mL and 7000 pg/mL | – | 50000 pg/mL and 40000 pg/mL and 45000 pg/mL | – | 34 nM and 68 nM and 60 nM and 38 nM and 50 nM | EC50 (human PBMC [2]): 514 nM and 529 nM and 522 nM
GCCACCGAGCCGAUUGUACC [ORN 22] | 23833 pg/mL | 244 nM | – | 2417 pg/mL | 1110 nM | –
AAUGGUUUGUUUGUCUUCGU [ORN 7] | 7500 pg/mL and 10000 pg/mL and 7000 pg/mL and 8000 pg/mL and 5000 pg/mL | 357 nM and 325 nM and 544 nM and 468 nM and 424 nM | 50000 pg/mL and 80000 pg/mL and 65000 pg/mL | – | – | EC50 (human PBMC [2]): 490 nM and 642 nM and 566 nM
dNdNdNdNdNdNUUGUdNdNdNdNdNdNdNdN [ORN 32] | 30000 pg/mL | 7980 nM | – | 666.7 pg/mL | 4560 nM | –
UUGUACGCAUUUUUUCGCGU [ORN 1] | 8500 pg/mL and 8000 pg/mL and 10000 pg/mL | 494 nM and 417 nM and 473 nM and 529 nM and 478 nM | 50000 pg/mL and 60000 pg/mL and 55000 pg/mL | – | – | EC50 (human PBMC [2]): 592 nM and 517 nM and 555 nM
